These are literature values, as cited in US20110045130A1, “BIOACTIVE PEPTIDE PRODUCTION” (priority 2007, published 2011).

In data set [1] the target is angiotensin converting enzyme (ACE) (Homo sapiens, UniProt P12821). The conditions noted are these: in vitro effect on ACE activity; relatively low IC50 values.
For data set [2], the system named is spontaneously hypertensive rats. The conditions noted are these: tripeptides derived from lactic acid bacteria fermented milk.

Chain of angiotensin converting enzyme (ACE) (P12821 30-1306, species assumed): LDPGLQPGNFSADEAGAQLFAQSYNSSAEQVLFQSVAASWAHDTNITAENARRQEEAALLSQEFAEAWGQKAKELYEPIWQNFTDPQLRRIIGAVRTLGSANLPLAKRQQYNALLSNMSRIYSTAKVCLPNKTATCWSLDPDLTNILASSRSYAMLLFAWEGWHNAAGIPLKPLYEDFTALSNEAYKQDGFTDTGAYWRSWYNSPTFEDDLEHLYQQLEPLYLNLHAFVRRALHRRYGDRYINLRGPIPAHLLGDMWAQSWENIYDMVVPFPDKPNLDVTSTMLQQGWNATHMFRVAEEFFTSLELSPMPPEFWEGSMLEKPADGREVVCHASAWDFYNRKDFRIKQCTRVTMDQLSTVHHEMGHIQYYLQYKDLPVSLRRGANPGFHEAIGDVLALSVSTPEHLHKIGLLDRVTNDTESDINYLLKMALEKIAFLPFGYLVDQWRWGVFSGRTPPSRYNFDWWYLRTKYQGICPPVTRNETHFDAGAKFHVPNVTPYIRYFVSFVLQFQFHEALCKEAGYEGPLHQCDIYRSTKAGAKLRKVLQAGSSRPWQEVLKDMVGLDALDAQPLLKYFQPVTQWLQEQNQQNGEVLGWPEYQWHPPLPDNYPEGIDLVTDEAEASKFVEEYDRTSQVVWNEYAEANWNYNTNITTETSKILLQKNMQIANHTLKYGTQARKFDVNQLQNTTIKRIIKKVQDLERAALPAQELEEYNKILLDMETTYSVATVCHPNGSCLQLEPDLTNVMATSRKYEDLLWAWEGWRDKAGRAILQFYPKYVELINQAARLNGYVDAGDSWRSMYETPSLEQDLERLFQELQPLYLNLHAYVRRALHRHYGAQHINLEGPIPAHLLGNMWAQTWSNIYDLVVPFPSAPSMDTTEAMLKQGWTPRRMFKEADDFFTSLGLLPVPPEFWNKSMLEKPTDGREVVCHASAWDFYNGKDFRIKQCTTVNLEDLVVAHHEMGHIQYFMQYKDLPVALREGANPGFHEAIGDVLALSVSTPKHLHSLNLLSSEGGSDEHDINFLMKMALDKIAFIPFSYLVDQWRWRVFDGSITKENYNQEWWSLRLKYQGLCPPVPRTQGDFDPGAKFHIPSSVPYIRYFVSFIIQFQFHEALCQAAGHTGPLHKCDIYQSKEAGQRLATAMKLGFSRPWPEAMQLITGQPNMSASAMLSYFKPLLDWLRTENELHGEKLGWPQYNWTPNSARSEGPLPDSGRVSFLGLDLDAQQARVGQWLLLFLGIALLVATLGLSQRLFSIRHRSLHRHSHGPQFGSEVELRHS

Take Ile-Pro-Pro [IPP]: in data set [1], the ACE inhibiting activity result was “Strong ACE inhibiting activities”. Moreover, in data set [2], the antihypertensive effects entry is “confirmed”.

As for Leu-Pro-Pro [LPP], in data set [1], the ACE inhibiting activity entry is “Strong ACE inhibiting activities”.

As to Val-Pro-Pro [VPP], in data set [1], the ACE inhibiting activity result is recorded as “Strong ACE inhibiting activities”. Moreover, the antihypertensive effects entry in data set [2] is recorded as “confirmed”.
